Measured values as given in patent US11730712B2, “Functionalized long-chain hydrocarbon mono- and di-carboxylic acids and derivatives thereof, and their use for the prevention or treatment of disease” (ESPERVITA THERAPEUTICS, INC., priority 2021, dated 2023).
Values joined by “and” are separate entries in the source; they are usually repeats but may differ in a detail not shown here. Identical values can stand only once.

Assays:
Assay in all cases: Kinase assay, wild type kinases
Format in all cases: biochemical
ERK7/MAPK15 = target: T1, ERK7/MAPK15 (Homo sapiens, UniProt Q8TD08); settings: compound 10 μM, 10 μM ATP, duplicate (Data 1, Data 2), >100 activation, <100 inhibition; for remaining activity at 10 µM: read-out: % Enzyme Activity (relative to DMSO controls), ERK7/MAPK15
T1 sequence (Q8TD08 1-544): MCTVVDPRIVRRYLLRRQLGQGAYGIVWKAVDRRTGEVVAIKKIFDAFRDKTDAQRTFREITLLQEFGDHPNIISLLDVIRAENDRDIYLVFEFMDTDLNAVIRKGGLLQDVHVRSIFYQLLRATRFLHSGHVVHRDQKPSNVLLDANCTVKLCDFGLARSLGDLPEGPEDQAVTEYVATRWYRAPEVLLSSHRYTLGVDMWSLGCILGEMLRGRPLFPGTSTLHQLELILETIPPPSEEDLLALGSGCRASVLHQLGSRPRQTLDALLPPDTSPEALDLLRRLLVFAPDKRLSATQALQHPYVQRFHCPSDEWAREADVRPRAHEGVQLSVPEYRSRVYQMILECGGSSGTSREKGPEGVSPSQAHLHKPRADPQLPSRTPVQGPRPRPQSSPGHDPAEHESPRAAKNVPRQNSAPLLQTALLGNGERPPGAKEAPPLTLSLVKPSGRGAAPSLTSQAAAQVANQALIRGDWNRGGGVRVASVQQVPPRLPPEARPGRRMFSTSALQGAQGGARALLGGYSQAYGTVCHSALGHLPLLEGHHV

NEK2 = target: T2, NEK2 (Homo sapiens, UniProt P51955); settings: compound 10 μM, 10 μM ATP, duplicate (Data 1, Data 2), >100 activation, <100 inhibition; for remaining activity at 10 µM: read-out: % Enzyme Activity (relative to DMSO controls), NEK2
T2 sequence (P51955 1-445): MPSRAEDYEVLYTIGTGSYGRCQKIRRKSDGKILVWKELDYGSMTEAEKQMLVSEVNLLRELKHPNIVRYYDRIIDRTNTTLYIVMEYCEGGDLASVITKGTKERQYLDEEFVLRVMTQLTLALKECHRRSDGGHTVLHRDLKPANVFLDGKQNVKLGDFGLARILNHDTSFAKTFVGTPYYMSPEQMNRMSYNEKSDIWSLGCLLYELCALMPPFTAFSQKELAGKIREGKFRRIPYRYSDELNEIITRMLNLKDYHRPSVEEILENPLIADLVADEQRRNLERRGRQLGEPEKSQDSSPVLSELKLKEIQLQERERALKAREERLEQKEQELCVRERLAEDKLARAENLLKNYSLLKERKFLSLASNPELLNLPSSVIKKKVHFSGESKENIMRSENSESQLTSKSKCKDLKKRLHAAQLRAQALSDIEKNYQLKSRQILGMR

RIPK4 = target: T3, RIPK4 (Homo sapiens, UniProt P57078); settings: compound 10 μM, 10 μM ATP, duplicate (Data 1, Data 2), >100 activation, <100 inhibition; for remaining activity at 10 µM: read-out: % Enzyme Activity (relative to DMSO controls), RIPK4
T3 sequence (P57078 1-832): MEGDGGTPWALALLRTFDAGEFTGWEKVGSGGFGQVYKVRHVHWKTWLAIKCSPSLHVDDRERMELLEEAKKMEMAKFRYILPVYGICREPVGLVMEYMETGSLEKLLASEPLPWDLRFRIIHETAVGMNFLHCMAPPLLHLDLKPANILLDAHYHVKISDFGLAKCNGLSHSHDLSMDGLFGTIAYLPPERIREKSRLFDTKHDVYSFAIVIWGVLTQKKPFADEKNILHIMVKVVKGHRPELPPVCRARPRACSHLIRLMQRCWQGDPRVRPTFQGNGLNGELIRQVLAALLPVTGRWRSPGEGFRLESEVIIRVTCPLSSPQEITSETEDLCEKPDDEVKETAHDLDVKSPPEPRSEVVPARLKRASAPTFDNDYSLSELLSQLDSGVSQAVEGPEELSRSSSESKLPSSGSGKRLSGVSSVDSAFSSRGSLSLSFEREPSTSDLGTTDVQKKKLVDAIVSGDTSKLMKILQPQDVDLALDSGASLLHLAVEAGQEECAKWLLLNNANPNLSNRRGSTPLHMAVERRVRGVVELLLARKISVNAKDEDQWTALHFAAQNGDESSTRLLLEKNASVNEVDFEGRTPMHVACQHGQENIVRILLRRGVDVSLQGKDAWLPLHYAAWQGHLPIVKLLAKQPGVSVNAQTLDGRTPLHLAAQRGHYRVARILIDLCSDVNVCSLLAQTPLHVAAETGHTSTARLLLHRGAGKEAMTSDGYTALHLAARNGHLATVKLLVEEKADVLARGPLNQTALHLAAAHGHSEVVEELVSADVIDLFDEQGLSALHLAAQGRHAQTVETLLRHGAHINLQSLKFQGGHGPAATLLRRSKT

LIMK1 = LIMK1 (Homo sapiens, UniProt P53667); settings: compound 10 μM, 10 μM ATP, duplicate (Data 1, Data 2), >100 activation, <100 inhibition; for remaining activity at 10 µM: read-out: % Enzyme Activity (relative to DMSO controls), LIMK1
Sequence of LIMK1 (P53667 whole entry, species assumed): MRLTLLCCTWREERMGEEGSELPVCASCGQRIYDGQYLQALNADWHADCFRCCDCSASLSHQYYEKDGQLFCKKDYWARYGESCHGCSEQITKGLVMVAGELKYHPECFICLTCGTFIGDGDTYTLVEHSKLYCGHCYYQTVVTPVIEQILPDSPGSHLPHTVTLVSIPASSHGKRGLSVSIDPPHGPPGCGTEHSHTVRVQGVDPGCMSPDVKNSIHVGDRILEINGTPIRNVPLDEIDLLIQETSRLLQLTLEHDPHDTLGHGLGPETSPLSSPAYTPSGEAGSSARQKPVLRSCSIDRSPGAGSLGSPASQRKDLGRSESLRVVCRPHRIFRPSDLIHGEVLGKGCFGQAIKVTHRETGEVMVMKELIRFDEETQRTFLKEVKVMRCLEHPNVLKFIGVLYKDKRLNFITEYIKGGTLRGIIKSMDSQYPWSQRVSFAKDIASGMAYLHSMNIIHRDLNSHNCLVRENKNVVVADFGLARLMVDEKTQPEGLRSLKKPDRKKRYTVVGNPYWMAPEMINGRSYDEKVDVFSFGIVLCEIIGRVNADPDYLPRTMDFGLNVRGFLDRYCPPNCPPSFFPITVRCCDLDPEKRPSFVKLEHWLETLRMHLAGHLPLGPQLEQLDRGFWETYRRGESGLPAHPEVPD

MLCK/MYLK = MLCK/MYLK (Homo sapiens, UniProt Q15746); settings: compound 10 μM, 10 μM ATP, duplicate (Data 1, Data 2), >100 activation, <100 inhibition; for remaining activity at 10 µM: read-out: % Enzyme Activity (relative to DMSO controls), MLCK/MYLK
MAPKAPK2 = MAPKAPK2 (Homo sapiens, UniProt P49137); settings: compound 10 μM, 10 μM ATP, duplicate (Data 1, Data 2), >100 activation, <100 inhibition; for remaining activity at 10 µM: read-out: % Enzyme Activity (relative to DMSO controls), MAPKAPK2
Sequence of MAPKAPK2 (P49137 whole entry, species assumed): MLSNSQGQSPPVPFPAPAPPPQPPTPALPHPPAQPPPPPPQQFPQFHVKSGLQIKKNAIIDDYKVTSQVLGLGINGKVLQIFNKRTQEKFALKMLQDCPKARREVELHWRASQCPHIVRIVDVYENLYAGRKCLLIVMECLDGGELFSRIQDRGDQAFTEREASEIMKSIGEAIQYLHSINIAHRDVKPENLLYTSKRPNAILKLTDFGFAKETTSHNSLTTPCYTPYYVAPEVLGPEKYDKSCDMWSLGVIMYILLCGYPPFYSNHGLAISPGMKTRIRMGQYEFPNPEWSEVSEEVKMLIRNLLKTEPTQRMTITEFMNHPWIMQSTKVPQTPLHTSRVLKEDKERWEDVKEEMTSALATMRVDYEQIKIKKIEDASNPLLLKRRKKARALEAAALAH

TNIK = TNIK (Homo sapiens, UniProt Q9UKE5); settings: compound 10 μM, 10 μM ATP, duplicate (Data 1, Data 2), >100 activation, <100 inhibition; for remaining activity at 10 µM: read-out: % Enzyme Activity (relative to DMSO controls), TNIK
Sequence of TNIK (Q9UKE5 whole entry, species assumed): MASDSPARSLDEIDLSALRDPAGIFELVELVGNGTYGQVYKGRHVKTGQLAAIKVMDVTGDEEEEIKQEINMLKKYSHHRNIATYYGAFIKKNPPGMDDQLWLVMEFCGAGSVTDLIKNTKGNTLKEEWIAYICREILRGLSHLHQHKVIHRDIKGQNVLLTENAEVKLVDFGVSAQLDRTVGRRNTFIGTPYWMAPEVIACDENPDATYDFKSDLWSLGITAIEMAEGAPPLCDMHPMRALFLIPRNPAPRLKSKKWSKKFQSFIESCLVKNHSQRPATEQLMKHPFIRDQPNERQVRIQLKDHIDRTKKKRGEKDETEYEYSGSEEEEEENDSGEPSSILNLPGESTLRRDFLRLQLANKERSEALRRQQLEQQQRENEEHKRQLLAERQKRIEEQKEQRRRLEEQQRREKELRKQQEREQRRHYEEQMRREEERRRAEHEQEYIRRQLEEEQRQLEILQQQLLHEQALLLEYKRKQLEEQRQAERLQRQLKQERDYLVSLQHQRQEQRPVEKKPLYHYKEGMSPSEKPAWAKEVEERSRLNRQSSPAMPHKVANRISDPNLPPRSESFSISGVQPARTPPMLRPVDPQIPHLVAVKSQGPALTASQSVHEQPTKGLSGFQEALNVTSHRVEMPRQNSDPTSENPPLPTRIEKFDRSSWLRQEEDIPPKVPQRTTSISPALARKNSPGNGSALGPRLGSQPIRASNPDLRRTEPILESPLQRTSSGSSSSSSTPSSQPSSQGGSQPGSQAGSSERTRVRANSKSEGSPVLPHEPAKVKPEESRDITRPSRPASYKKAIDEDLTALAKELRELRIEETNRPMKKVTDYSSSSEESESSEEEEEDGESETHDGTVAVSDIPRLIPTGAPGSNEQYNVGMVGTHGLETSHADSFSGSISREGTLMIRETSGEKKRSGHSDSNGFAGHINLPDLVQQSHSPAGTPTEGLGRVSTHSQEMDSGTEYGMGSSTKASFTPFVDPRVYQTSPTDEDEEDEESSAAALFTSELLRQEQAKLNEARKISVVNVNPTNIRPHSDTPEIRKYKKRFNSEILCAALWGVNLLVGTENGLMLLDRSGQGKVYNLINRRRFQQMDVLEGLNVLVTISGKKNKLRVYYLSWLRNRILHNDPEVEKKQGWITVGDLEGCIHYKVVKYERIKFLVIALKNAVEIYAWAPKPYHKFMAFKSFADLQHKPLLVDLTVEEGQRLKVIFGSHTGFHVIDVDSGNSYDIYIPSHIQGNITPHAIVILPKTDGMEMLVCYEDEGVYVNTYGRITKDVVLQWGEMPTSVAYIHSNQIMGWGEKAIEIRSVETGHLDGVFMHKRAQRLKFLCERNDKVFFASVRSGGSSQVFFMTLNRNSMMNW

FLT1/VEGFR1 = FLT1/VEGFR1 (Homo sapiens, UniProt P17948); settings: compound 10 μM, 10 μM ATP, duplicate (Data 1, Data 2), >100 activation, <100 inhibition; for remaining activity at 10 µM: read-out: % Enzyme Activity (relative to DMSO controls), FLT1/VEGFR1
Sequence of FLT1/VEGFR1 (P17948 27-1338): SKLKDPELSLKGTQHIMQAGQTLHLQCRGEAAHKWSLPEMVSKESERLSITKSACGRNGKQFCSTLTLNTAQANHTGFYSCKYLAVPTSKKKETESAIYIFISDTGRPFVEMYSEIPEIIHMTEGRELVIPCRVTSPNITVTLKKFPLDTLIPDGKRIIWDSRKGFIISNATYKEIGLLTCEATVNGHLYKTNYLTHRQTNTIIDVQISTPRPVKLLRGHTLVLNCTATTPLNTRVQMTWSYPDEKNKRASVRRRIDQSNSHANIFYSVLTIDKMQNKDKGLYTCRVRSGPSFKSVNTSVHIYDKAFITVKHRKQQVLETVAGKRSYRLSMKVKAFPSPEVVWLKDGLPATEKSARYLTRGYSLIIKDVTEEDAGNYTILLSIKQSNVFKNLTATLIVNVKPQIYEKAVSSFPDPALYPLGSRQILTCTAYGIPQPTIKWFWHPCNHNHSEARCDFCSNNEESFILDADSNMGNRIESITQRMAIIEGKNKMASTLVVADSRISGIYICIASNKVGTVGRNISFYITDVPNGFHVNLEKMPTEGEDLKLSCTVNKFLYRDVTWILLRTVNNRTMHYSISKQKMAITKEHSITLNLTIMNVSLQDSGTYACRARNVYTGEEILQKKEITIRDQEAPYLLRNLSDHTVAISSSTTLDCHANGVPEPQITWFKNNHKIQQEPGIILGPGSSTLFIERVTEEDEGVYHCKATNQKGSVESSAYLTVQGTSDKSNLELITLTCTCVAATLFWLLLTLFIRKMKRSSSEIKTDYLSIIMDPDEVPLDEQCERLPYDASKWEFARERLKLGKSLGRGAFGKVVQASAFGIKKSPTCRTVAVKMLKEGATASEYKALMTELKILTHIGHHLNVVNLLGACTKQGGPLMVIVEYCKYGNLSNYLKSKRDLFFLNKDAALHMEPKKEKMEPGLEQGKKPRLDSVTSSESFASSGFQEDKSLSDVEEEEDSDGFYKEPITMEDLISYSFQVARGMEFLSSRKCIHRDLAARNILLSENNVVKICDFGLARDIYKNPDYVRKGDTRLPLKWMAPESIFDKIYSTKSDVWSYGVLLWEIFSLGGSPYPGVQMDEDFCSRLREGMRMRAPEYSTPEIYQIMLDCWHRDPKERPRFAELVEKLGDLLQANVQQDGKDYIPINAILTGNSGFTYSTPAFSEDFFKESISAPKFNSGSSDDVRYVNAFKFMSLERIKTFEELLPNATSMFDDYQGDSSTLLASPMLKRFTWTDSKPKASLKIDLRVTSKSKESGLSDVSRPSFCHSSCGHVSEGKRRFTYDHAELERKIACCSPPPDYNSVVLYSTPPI

Row | SMILES | remaining activity at 10 µM (ERK7/MAPK15) [%] | remaining activity at 10 µM (NEK2) [%] | remaining activity at 10 µM (RIPK4) [%] | remaining activity at 10 µM (LIMK1) [%] | remaining activity at 10 µM (MLCK/MYLK) [%] | remaining activity at 10 µM (MAPKAPK2) [%] | remaining activity at 10 µM (TNIK) [%] | remaining activity at 10 µM (FLT1/VEGFR1) [%] | % Enzyme Activity (relative to DMSO controls), ERK7/MAPK15 (ERK7/MAPK15) | % Enzyme Activity (relative to DMSO controls), NEK2 (NEK2) | % Enzyme Activity (relative to DMSO controls), RIPK4 (RIPK4) | % Enzyme Activity (relative to DMSO controls), LIMK1 (LIMK1) | % Enzyme Activity (relative to DMSO controls), MLCK/MYLK (MLCK/MYLK) | % Enzyme Activity (relative to DMSO controls), MAPKAPK2 (MAPKAPK2) | % Enzyme Activity (relative to DMSO controls), TNIK (TNIK) | % Enzyme Activity (relative to DMSO controls), FLT1/VEGFR1 (FLT1/VEGFR1)
1 | CC(C)(CCCCc1ccc(CCCCC(C)(C)C(=O)O)cc1)C(=O)O [Compound I-1, 6-[4-(5-carboxy-5-methylhexyl)-phenyl]-2,2-dimethylhexanoic acid] | 100 | 90.3 | 45.1 | 81 | 110 | 93.1 | 106 | 90.3 | – | – | – | – | – | – | – | –
2 | CC(C)(CCCCc1cccc(CCCCC(C)(C)C(=O)O)c1)C(=O)O [Compound I-32, 6-[3-(5-carboxy-5-methylhexyl)-phenyl]-2,2-dimethylhexanoic acid] | 104 | 87.8 | 43 | 83.8 | 106 | 91.7 | 101 | 92.3 | – | – | – | – | – | – | – | –
3 | CC(C)(CCCCc1cccc(CCCCC(C)(C)C(=O)SCCNC(=O)CCNC(=O)[C@H](O)C(C)(C)COP(=O)(O)OP(=O)(O)OC[C@H]2O[C@@H](n3cnc4c(N)ncnc43)[C@H](O)[C@@H]2OP(=O)(O)O)c1)C(=O)O [Compound I-32-CoA, 6-[3-(5-Carboxy-5-methylhexyl)-phenyl]-2,2-dimethylhexanoic acid Coenzyme A Ester] | – | – | – | – | – | – | – | – | 88.39% and 80.61% | 35.98% and 34.99% | 33.02% and 32.84% | 47.31% and 45.01% | 3.21% and 1.59% | 17.17% and 15.90% | 70.02% and 66.13% | 52.06% and 51.61%
4 | CC(C)(CCCCc1ccc(CCCCC(C)(C)C(=O)SCCNC(=O)CCNC(=O)[C@H](O)C(C)(C)COP(=O)(O)OP(=O)(O)OC[C@H]2O[C@@H](n3cnc4c(N)ncnc43)[C@H](O)[C@@H]2OP(=O)(O)O)cc1)C(=O)O [Compound I-1-CoA, 6-[4-(5-carboxy-5-methylhexyl)-phenyl]-2,2-dimethylhexanoic acid Coenzyme A ester] | – | – | – | – | – | – | – | – | 51.57% and 45.02% | 0.89% and 0.63% | 32.26% and 29.70% | 77.88% and 76.61% | 2.06% and −0.71% | 85.04% and 84.66% | 39.22% and 36.50% | 84.17% and 82.94%
